Results: patent publication EP0055702B1, “Antithrombotic treatment” (priority 1980, dated 1982)
“And” between values parts separate entries of the source, which are not always exact repeats. Equal values may be shown once. Read-outs that look alike come from different tables or passages of the source.

What was measured:
[1] = test system: platelet aggregation induced by adenosine diphosphate (ADP); conditions: rabbit blood, Kikugawa, cited from earlier work
[2] = test system: human platelet-rich plasma; experiment: Platelet aggregometer, technique of Born, human platelet-rich plasma; type: cell-based; conditions: 1 millimole (mM), ADP, collagen, epinephrine and arachidonic acid
Text: In order to evaluate an antithrombotic effect, it is preferable to withdraw samples of blood from a patient undergoing treatment and measure platelet aggregation. One method is described by Born in Nature 194, pp. 927-929 (1962) and may be used for this purpose, if desired.
That sodium bisulphite is a platelet antiagregatory agent is shown by using a platelet aggregometer based on the technique of Born (above cited).

F VII = target: T1, F VII (Homo sapiens, UniProt P08709); experiment: Factor VII assay, Example 4; type: biochemical; conditions: for F VII: Control 73
T1 construct: from tissue; host or cells: human plasma
T1 sequence (P08709 61-466): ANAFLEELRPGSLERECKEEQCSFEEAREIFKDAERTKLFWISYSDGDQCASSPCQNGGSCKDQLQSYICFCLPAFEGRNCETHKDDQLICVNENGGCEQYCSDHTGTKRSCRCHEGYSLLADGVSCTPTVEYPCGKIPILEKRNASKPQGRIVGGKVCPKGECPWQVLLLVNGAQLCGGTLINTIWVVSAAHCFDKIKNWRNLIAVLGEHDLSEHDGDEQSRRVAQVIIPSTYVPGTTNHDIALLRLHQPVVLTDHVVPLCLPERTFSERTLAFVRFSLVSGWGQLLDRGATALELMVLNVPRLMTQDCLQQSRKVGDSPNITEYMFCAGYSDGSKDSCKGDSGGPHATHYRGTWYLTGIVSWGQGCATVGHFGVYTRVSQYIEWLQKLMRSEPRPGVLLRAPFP
Text: (§1) The evaluation procedure used is that described in "Human Blood Coagulation, Haemostasis and Thrombosis", edited by Rosemary Biggs, published by Blackwell Scientific Publications, Oxford, England (2nd Edition), pages 670-705, 1976. […]

rats = experiment: Rats fed bait containing 0.5% sodium bisulphite; type: in vivo
Text: Five rats, each in a separate cage, were given a bait containing 0.5 percent by weight of sodium bisulphite. The bait consisted of cracked grains (wheat, corn, millet and corn meal). The amounts of bait eaten were summarized for an eleven day period.

F XI = target: T2, F XI (Homo sapiens, UniProt P03951); experiment: Factor XI assay, Example 4; type: biochemical; conditions: for F XI: Control 117
T2 construct: from tissue; host or cells: human plasma
Text: as §1

Prothrombin = target: T3, Prothrombin (Homo sapiens, UniProt P00734); experiment: Prothrombin (Factor II) assay, Example 4; type: biochemical; conditions: for Prothrombin: Control 87
T3 construct: from tissue; host or cells: human plasma
Text: as §1

blood = experiment: Storage of human blood samples with added sodium bisulphite solution; conditions: about 4 cc blood plus about 10 drops of 10 weight percent solution; about 2) years at ambient temperatures
Method: Samples of about 4 cc each of blood were prepared. To each of these was added about 10 drops of a 10 weight percent solution of sodium bisulphite in distilled water. Each sample was then sealed into a glass vial.

[3] = test system: platelet thrombus formation on damaged aortic wall; experiment: Indium-111 platelet labelling technique in rabbits; type: in vivo; conditions: intravenous 72.80 mg/kg
Method: In medicine, arterial thrombosis is diagnosable, for example, by clinical manifestations, by arteriography and, recently, by an indium 111 platelet labelling technique (see, for example, the article entitled "Differential Effects of Two Doses of Aspirin on Platelet-Vessel Wall Interaction In Vivo" by K. K. Wu et al being published in the Journal of Clinical Investigation, August, 1981).
Sodium bisulphite was evaluated as an anti-thrombotic agent in vivo using the indium-111 platelet labelling technique in rabbits (see the Wu et al article above cited). The material was administered by intravenous injection (72.80 milligrams per kilogram of animal body weight).

F X = target: T4, F X (Homo sapiens, UniProt P00742); experiment: Factor X assay, Example 4; type: biochemical; conditions: for F X: Control 78
T4 construct: from tissue; host or cells: human plasma
Text: as §1

human plasma = experiment: Partial Thromboplastin Time, Example 4; type: biochemical
Text: as §1

[4] = Sodium bisulphite 0.01 mg/ml, solution D
[5] = Sodium bisulphite 0.05 mg/ml, solution D
[6] = Sodium bisulphite 0.1 mg/ml, solution D
[7] = Sodium bisulphite 0.5 mg/ml, solution D
[8] = Sodium bisulphite 1.0 mg/ml, solution D
[9] = Sodium bisulphite 5.0 mg/ml, solution D
[10] = chemical grade sodium bisulphite 0.01 mg/ml
[11] = chemical grade sodium bisulphite 0.05 mg/ml
[12] = chemical grade sodium bisulphite 0.1 mg/ml
[13] = chemical grade sodium bisulphite 0.5 mg/ml
[14] = chemical grade sodium bisulphite 1.0 mg/ml
[15] = chemical grade sodium bisulphite 5.0 mg/ml

T4 sequence (P00742 41-488): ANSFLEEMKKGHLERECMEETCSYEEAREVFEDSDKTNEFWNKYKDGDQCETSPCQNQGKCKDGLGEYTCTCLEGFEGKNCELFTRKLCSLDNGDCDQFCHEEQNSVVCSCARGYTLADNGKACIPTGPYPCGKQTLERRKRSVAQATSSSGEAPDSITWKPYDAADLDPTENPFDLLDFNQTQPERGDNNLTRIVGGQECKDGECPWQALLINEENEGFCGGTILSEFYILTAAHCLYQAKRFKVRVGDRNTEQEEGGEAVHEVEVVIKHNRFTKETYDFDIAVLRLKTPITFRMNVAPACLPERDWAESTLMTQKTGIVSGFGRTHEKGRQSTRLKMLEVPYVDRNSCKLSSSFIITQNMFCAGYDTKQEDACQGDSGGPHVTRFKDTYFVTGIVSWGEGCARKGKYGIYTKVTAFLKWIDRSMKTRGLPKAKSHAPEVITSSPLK
T2 sequence (P03951 19-625): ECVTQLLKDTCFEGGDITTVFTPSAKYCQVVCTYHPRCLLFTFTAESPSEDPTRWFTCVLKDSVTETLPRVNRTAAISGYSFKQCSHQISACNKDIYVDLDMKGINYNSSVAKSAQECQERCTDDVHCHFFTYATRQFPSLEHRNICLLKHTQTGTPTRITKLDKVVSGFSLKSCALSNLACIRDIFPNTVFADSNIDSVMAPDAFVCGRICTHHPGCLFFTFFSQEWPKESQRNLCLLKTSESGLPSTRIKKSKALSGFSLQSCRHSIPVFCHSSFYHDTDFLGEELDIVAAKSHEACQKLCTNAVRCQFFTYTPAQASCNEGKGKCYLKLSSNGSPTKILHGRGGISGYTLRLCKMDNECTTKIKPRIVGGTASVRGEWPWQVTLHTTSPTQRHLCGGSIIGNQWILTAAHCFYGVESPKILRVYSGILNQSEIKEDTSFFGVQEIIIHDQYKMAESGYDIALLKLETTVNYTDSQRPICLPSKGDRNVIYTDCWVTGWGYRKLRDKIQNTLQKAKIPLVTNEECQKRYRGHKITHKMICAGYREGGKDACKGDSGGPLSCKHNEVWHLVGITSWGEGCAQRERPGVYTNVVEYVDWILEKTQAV

In the case of Sodium bisulphite, the “inhibition of platelet aggregation induced by ADP” value (“inhibition” for short) ([1]; 1 mM) is listed as 9%, the “inhibition” value ([1]; 5 mM) is listed as 66% and the “inhibition” value ([1]; 10 mM) is listed as 69%. The platelet aggregation [2] was “abolishes platelet aggregation”, the “effect on Factor VII” value (F VII; 0.5 mg per ml, human plasma) was “significant inhibitory effect” and the “F VII” value (F VII; [4]) was 67%. For the same substance, the “F VII” value (F VII; [5]) was 57%, the “F VII” value (F VII; [6]) was 51% and the “F VII” value (F VII; [7]) was 23%. For the same substance, the “F VII” value (F VII; [8]) was 8%, the “F VII” value (F VII; [9]) was 1% and the “F VII” value (F VII; [10]) was 62. For the same substance, the “F VII” value (F VII; [11]) was 63, the “F VII” value (F VII; [12]) was 53 and the “F VII” value (F VII; [13]) was 17. For the same substance, the “F VII” value (F VII; [14]) was 7, the “F VII” value (F VII; [15]) was 2 and the death of rat (rats; 2 days, Rat 1 and Rat 4, bait with 0.5% sodium bisulphite) was “Died”. The “First day blood factor PT” value (rats; Rat 5, bait with 0.5% sodium bisulphite) was 27, the “First day blood factor PT, increase” value (rats; Rats 1, 2, 3, bait with 0.5% sodium bisulphite) was 26% increase and 24% increase and 28% increase and the “change in PTT, first day” value (rats; three rats with increased PT) was “no apparent change”. The “effect on Factor XI” value (F XI; 0.5 mg per ml, human plasma) was “significant inhibitory effect”, the “F XI” value (F XI; [4]) was 98% and the “F XI” value (F XI; [5]) was 81%. The “F XI” value (F XI; [6]) was 58%, the “F XI” value (F XI; [7]) was 27% and the “F XI” value (F XI; [8]) was 4%. The “F XI” value (F XI; [9]) was <1%, the “F XI” value (F XI; [10]) was 83 and the “F XI” value (F XI; [11]) was 82. The “F XI” value (F XI; [12]) was 55, the “F XI” value (F XI; [13]) was 24 and the “F XI” value (F XI; [14]) was 2. For the same substance, the “F XI” value (F XI; [15]) was <1, the Prothrombin (Prothrombin; [4]) was 79% and the Prothrombin (Prothrombin; [5]) was 80%. It also gave a Prothrombin (Prothrombin; [6]) of 72%, a Prothrombin (Prothrombin; [7]) of 40% and a Prothrombin (Prothrombin; [8]) of 26%. It also gave a Prothrombin (Prothrombin; [9]) of 5%, a Prothrombin (Prothrombin; [10]) of 88% and a Prothrombin (Prothrombin; [11]) of 82%. It also gave a Prothrombin (Prothrombin; [12]) of 75%, a Prothrombin (Prothrombin; [13]) of 34% and a Prothrombin (Prothrombin; [14]) of 25%. For the same substance, the Prothrombin (Prothrombin; [15]) was 8%, the “effect on Factor II” value (Prothrombin; human plasma) was “mildly affected” and the “coagulation of stored blood samples” value (blood) was “have not coagulated”. The “Platelet accumulation II. at normal vessel wall cpm/gm” value ([3]; rabbits A, B, per gram dry weight of tissue, Control 72,140± 39,040) was 98,611 cpm/gm and 83,066 cpm/gm, the “Platelet accumulation I. at damaged vessel wall cpm/gm” value ([3]; rabbits A, B, per gram dry weight of tissue, Control 1,167,820± 21,310) was 133,986 cpm/gm and 146,630 cpm/gm and the “Platelet accumulation II. at normal vessel wall %” value ([3]; rabbits A, B, percentage of injected radioactivity per gram dry weight, Control 0.03± 0.02) was 0.08%. For the same substance, the “Platelet accumulation I. at damaged vessel wall %” value ([3]; rabbits A, B, percentage of injected radioactivity per gram dry weight, Control 0.44± 0.08, 72.8 mg/kg) was 0.11% and 0.15%, the “reduction of accumulation of platelet thrombus at the damaged vessel wall” value ([3]; rabbits) was 70% and the “effect on Factor X” value (F X; 0.5 mg per ml, human plasma) was “significant inhibitory effect”. For the same substance, the “F X” value (F X; [4]) was 73%, the “F X” value (F X; [5]) was 68% and the “F X” value (F X; [6]) was 66%. The “F X” value (F X; [7]) was 31%, the “F X” value (F X; [8]) was 11% and the “F X” value (F X; [9]) was 3%. For the same substance, the “F X” value (F X; [10]) was 80, the “F X” value (F X; [11]) was 69 and the “F X” value (F X; [12]) was 66. For the same substance, the “F X” value (F X; [13]) was 22, the “F X” value (F X; [14]) was 6 and the “F X” value (F X; [15]) was 4. It also gave a PTT (human plasma; Sodium bisulphite 0.01 mg/ml, solution D, Control 12.20) of 12.33 s, a PTT (human plasma; Sodium bisulphite 0.05 mg/ml, solution D, Control 12.20) of 12.43 s and a PTT (human plasma; Sodium bisulphite 0.1 mg/ml, solution D, Control 12.20) of 12.85 s. The PTT (human plasma; Sodium bisulphite 0.5 mg/ml, solution D, Control 12.20) was 15.43 s, the PTT (human plasma; Sodium bisulphite 1.0 mg/ml, solution D, Control 12.20) was 22.63 s and the PTT (human plasma; Sodium bisulphite 5.0 mg/ml, solution D, Control 12.20) was >150 s. The PTT (human plasma; chemical grade sodium bisulphite 0.01 mg/ml, Control 34.67) was 32.80 s, the PTT (human plasma; chemical grade sodium bisulphite 0.05 mg/ml, Control 34.67) was 33.77 s and the PTT (human plasma; chemical grade sodium bisulphite 0.1 mg/ml, Control 34.67) was 34.40 s. For the same substance, the PTT (human plasma; chemical grade sodium bisulphite 0.5 mg/ml, Control 34.67) was 44.87 s, the PTT (human plasma; chemical grade sodium bisulphite 1.0 mg/ml, Control 34.67) was 78.46 s and the PTT (human plasma; chemical grade sodium bisulphite 5.0 mg/ml, Control 34.67) was >150 s.
